Measured values taken from patent US6649565B1, “Selective herbicides on the basis of a substituted phenylsulfonylaminocarbonyltriazolinone and safeners” (Bayer Aktiengesellschaft, priority 1999, dated 2003).

Key:
[1] = system: wheat of the cultivar Orestis; experiment: Post-emergence test/greenhouse, damage to crop plant wheat; type: in vivo; conditions: greenhouse, after approx. 18 days
Description: (§1) The active compounds in question were used in the form of customary formulations. The sodium salt of the compound of the formula (I) was applied as 70 WG or 70 WP, mefenpyr-diethyl was applied as 100 EC and fenchlorazole-ethyl and cloquintocetmexyl were applied as a laboratory formulation of the active compound produced by ourselves. The active compounds and, if appropriate, the safeners were used to prepare an aqueous spray liquor comprising 0.1% of the additive Renex-36.
(§2) The active compound preparation is used to spray test plants which were grown in 10×10 cm pots (growth medium: soil or vermiculte), such that the particular amounts of active compound desired are applied per unit area. The concentration of the spray liquor is chosen such that the particular amounts of active compound desired are applied in […].
(§3) After approximately 18 days the degree of damage to the crop plants was rated in % damage in comparison with the development of the untreated control.
(§4) 0%=no damage (like untreated control)
(§5) 100%=total destruction/damage
(§6) Active compounds, application rates, test plants and results are shown in the tables below, the terms used in the tables having the following meaning:
wheat=wheat of the cultivar Orestis
(§7) a.i.=active ingredient=active compound/safener

[2] = system: barley of the cultivar Coronar; experiment: Post-emergence test/greenhouse, damage to crop plant barley; type: in vivo; conditions: greenhouse, after approx. 18 days
Description: as §1, §2, §3, §4, §5, §6
barley=barley of the cultivar Coronar
as §7

CCCOc1nn(C(=O)[N-]S(=O)(=O)c2ccccc2C(=O)OC)c(=O)n1C.[Na+]
Damage wheat ([1]; Table A1, 90 g of a.i./ha): 20% | Damage wheat ([1]; Table A1, 180 g of a.i./ha): 30% | Damage wheat ([1]; Table A2, 60 g of a.i./ha): 20% | Damage wheat ([1]; Table A2, 125 g of a.i./ha): 30% | Damage wheat ([1]; Table A2, 250 g of a.i./ha): 50% | Damage wheat ([1]; Table A3, 30 g of a.i./ha): 5% | Damage wheat ([1]; Table A3, 60 g of a.i./ha): 10% | Damage wheat ([1]; Table A3, 125 g of a.i./ha): 50% | Damage wheat ([1]; Table A4, 60 g of a.i./ha): 30% | Damage wheat ([1]; Table A4, 125 g of a.i./ha): 40% | Damage wheat ([1]; Table A7, 60 g of a.i./ha): 20% | Damage wheat ([1]; Table A7, 125 g of a.i./ha): 30% | Damage wheat ([1]; Table A7, 250 g of a.i./ha): 50% | Damage wheat ([1]; Table A8, 30 g of a.i./ha): 5% | Damage wheat ([1]; Table A8, 60 g of a.i./ha): 10% | Damage wheat ([1]; Table A8, 125 g of a.i./ha): 50% | Damage barley ([2]; Table A5, 15 g of a.i./ha): 50% | Damage barley ([2]; Table A5, 30 g of a.i./ha): 70% | Damage barley ([2]; Table A5, 60 g of a.i./ha): 70% | Damage barley ([2]; Table A6, 8 g of a.i./ha): 50% | Damage barley ([2]; Table A6, 15 g of a.i./ha): 50% | Damage barley ([2]; Table A6, 30 g of a.i./ha): 60% | Damage barley ([2]; Table A6, 60 g of a.i./ha): 60% | Damage barley ([2]; Table A9, 15 g of a.i./ha): 50% | Damage barley ([2]; Table A9, 30 g of a.i./ha): 70% | Damage barley ([2]; Table A9, 60 g of a.i./ha): 70%
